Data as given in ChEMBL document CHEMBL1153114, “Discovery of orally available integrin alpha5beta1 antagonists” (Bioorg Med Chem Lett, 2010).

Experiments:
Integrin alpha-5/beta-1 = Integrin alpha-5/beta-1 (Homo sapiens, UniProt P05556+P08648); assay: Binding affinity to integrin alpha5beta1 receptor by ELISA; assay type: protein-complex assay
Integrin alpha-V/beta-3 = Integrin alpha-V/beta-3 (Homo sapiens, UniProt P05106+P06756); assay: Binding affinity to integrin […] receptor by ELISA; assay type: protein-complex assay
Chain of Integrin alpha-V/beta-3 (P05106 27-788 limits assumed): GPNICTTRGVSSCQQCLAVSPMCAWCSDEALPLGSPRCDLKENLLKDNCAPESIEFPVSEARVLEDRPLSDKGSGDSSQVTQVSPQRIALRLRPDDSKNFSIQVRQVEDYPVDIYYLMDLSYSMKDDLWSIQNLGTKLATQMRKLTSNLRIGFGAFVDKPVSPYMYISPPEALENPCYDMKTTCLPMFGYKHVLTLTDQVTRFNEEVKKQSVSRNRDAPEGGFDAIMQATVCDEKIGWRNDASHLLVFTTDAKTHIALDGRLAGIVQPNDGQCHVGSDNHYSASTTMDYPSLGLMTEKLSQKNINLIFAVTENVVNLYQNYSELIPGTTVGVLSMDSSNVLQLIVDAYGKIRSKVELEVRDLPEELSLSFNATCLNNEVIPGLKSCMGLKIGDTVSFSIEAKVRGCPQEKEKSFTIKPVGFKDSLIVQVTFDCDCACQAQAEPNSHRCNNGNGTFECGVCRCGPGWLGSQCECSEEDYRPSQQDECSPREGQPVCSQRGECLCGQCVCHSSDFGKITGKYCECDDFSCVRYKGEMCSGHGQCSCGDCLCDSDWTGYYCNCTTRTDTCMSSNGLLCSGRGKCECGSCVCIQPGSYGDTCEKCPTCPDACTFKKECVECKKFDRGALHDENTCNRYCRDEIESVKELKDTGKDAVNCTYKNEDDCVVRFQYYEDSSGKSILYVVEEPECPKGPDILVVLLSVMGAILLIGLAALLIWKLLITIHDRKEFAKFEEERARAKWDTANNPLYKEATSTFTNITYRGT
Chain of Integrin alpha-V/beta-3 (P06756 31-889 limits assumed): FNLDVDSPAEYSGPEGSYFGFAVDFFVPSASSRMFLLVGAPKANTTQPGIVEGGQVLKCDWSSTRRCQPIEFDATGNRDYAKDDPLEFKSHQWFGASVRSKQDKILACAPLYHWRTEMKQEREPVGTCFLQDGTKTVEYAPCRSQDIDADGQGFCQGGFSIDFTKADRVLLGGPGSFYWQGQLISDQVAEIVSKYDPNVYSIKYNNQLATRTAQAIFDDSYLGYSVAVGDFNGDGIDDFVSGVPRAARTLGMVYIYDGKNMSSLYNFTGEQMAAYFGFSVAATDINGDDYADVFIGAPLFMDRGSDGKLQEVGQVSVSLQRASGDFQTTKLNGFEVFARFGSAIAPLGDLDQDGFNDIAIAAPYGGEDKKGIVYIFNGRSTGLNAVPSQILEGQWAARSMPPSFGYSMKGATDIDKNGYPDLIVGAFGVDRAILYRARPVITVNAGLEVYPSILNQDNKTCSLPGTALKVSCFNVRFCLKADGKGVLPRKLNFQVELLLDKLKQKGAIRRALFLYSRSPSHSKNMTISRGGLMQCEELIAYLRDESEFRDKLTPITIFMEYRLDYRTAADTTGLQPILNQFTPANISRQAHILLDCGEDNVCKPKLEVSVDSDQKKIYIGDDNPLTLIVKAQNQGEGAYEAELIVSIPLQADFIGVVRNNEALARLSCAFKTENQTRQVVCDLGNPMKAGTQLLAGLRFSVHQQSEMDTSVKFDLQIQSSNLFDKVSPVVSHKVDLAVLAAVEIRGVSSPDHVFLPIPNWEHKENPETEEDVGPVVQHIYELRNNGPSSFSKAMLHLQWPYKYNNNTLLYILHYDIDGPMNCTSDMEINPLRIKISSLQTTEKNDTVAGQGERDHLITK
Chain of Integrin alpha-V/beta-3 (P06756 891-1048 limits assumed): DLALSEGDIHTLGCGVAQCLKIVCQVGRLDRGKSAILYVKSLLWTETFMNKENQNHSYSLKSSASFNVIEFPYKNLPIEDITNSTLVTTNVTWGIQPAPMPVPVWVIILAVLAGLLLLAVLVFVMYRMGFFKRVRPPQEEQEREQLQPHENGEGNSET

Integrin alpha-V/beta-5 = Integrin alpha-V/beta-5 (Homo sapiens, UniProt P06756+P18084); assay: Binding affinity to integrin […] receptor by ELISA; assay type: protein-complex assay
Chain of Integrin alpha-V/beta-5 (P06756 31-889 limits assumed): as the sequence (P06756 31-889 limits assumed) above
Chain of Integrin alpha-V/beta-5 (P06756 891-1048 limits assumed): as the sequence (P06756 891-1048 limits assumed) above
Chain of Integrin alpha-V/beta-5 (P18084 24-799 limits assumed): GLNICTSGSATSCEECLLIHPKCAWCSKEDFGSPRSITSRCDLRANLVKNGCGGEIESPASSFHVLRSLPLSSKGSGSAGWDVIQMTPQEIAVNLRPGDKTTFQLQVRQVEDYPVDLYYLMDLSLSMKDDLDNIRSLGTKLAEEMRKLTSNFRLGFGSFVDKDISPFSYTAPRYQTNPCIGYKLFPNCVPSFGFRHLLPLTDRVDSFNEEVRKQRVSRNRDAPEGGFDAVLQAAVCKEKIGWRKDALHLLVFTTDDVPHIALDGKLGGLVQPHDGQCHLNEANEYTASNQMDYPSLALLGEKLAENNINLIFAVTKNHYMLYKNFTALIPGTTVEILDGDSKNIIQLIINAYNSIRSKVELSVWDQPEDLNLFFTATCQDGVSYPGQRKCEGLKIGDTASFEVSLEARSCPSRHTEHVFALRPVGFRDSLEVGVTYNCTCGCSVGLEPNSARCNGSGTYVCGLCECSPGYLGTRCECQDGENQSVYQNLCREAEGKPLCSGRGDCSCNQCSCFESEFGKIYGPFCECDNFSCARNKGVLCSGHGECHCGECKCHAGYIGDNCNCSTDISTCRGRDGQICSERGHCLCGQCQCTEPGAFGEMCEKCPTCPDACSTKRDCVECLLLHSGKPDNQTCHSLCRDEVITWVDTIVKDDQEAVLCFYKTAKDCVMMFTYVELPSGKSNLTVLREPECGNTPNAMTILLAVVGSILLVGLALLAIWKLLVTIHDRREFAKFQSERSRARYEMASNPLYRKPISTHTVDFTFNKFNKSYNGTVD

[1] = target: Integrin alpha-IIb/beta-3 (Homo sapiens, UniProt P05106+P08514); assay: Binding affinity to integrin alpha2bbeta3 receptor by ELISA; assay type: protein-complex assay
[2] = Clearance in Wistar rat at 1 mg/kg, iv; assay type: ADME, organism-based; parameters: dose 1 mg/kg, route intravenous; conditions: in vivo
[3] = (§1) Terminal half life in Clearance in Wistar rat at 1 mg/kg, iv; assay type: ADME, organism-based; parameters: dose 1 mg/kg, route intravenous; conditions: Wistar, in vivo, read-out: beta t1/2
[4] = Oral bioavailability in Wistar rat at 10 mg/kg; assay type: ADME, organism-based; conditions: in vivo
Rattus norvegicus = assay: as §1; assay type: ADME, organism-based; parameters: dose 1 mg/kg, route intravenous; conditions: in vivo

Chain of Integrin alpha-5/beta-1 (P05556 21-798 limits assumed): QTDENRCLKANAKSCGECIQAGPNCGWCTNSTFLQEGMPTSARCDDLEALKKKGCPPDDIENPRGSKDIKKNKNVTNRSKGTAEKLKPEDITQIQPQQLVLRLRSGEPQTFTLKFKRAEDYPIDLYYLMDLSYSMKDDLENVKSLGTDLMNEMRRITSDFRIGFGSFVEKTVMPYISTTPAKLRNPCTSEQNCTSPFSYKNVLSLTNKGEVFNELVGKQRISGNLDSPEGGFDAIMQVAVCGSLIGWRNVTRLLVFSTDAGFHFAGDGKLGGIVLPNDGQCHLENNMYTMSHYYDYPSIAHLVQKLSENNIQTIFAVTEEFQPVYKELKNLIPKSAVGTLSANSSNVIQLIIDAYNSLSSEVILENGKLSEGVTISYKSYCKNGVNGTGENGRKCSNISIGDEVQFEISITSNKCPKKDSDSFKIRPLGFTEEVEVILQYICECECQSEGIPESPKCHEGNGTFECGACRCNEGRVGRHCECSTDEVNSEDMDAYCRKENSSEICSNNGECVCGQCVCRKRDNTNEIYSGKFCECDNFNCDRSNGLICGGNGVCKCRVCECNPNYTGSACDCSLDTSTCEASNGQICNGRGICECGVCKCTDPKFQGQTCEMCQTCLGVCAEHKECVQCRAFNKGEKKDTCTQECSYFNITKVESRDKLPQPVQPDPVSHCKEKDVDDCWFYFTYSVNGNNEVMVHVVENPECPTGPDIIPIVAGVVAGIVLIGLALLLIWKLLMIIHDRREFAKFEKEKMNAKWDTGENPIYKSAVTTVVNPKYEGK
Chain of Integrin alpha-5/beta-1 (P08648 42-894 limits assumed): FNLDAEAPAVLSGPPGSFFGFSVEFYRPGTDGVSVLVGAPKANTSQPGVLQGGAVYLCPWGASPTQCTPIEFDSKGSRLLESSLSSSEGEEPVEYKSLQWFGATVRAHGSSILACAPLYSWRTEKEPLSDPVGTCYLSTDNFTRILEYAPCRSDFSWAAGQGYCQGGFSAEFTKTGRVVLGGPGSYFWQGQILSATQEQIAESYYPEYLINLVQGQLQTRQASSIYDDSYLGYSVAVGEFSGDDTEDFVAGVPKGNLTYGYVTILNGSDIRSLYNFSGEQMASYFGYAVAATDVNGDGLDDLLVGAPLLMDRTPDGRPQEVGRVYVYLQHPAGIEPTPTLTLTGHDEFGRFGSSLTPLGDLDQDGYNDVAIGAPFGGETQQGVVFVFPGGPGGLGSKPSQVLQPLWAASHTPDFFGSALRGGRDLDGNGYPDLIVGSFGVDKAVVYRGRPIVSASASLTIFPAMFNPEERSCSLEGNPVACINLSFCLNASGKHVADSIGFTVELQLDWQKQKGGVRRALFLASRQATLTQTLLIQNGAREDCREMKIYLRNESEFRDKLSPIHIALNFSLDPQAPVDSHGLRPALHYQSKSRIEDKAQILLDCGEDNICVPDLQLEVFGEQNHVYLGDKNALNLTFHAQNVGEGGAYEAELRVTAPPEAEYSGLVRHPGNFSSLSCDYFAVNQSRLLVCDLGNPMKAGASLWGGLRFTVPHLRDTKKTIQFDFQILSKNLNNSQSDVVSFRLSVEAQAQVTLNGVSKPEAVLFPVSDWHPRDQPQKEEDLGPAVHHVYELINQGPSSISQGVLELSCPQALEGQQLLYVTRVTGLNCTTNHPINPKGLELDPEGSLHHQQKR
Chain of Integrin alpha-5/beta-1 (P08648 895-1049 limits assumed): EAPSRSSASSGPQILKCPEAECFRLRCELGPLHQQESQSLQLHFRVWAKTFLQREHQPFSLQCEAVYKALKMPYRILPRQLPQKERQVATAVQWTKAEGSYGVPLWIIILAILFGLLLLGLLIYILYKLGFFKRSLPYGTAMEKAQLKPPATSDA

| Compound | IC50 (Integrin alpha-5/beta-1) [µM] | IC50 (Integrin alpha-V/beta-3) [µM] | IC50 (Integrin alpha-V/beta-5) [µM] | IC50 [1] [µM] | clearance [2] [mL/min/kg] | half-life [3] [h] | bioavailability [4] [%] | beta t1/2 (Rattus norvegicus) [h] |
| --- | --- | --- | --- | --- | --- | --- | --- | --- |
| Cc1ccnc(NCc2cnc(-c3ccc(C[C@H](NC(=O)c4c(C)cc(C)cc4C)C(=O)O)cc3)s2)c1 | 0.013 | 0.472 | 0.502 | 150 | – | – | – | – |
| Cc1ccnc(NCc2csc(-c3ccc(C[C@H](NC(=O)c4c(C)cc(C)cc4C)C(=O)O)cc3)c2)c1 | 0.046 | 1.73 | 3.57 | 97 | – | – | – | – |
| Cc1ccnc(NCc2sccc2-c2ccc(C[C@H](NC(=O)c3c(C)cc(C)cc3C)C(=O)O)cc2)c1 | 0.887 | 16 | 17 | 77 | – | – | – | – |
| Cc1ccnc(NCc2coc(-c3ccc(C[C@H](NC(=O)c4c(C)cc(C)cc4C)C(=O)O)cc3)c2)c1 | 0.079 | 2.42 | 2.48 | 52 | 17 | 1.47 | 26 | – |
| Cc1ccnc(NCc2cccc(-c3ccc(CC(NC(=O)c4c(C)cc(C)cc4C)C(=O)O)cc3)c2)c1 (racemic) | 0.087 | 0.89 | > 20 | 180 | – | – | – | – |
| Cc1ccnc(NCc2ccc(-c3ccc(CC(NC(=O)c4c(C)cc(C)cc4C)C(=O)O)cc3)cc2)c1 (racemic) | 0.065 | 2.92 | > 0.02 | 165 | – | – | – | – |

The next molecules have a lower IC50 (Integrin alpha-5/beta-1) than those just listed; values first:

| IC50 (Integrin alpha-5/beta-1) [µM] | IC50 (Integrin alpha-V/beta-3) [µM] | IC50 (Integrin alpha-V/beta-5) [µM] | IC50 [1] [µM] | clearance [2] [mL/min/kg] | half-life [3] [h] | bioavailability [4] [%] | beta t1/2 (Rattus norvegicus) [h] | Compound |
| --- | --- | --- | --- | --- | --- | --- | --- | --- |
| 0.0016 | 0.319 | 1.34 | – | – | – | – | – | Cc1ccnc(NCC2CC(=O)N(c3ccc(C[C@H](NC(=O)c4c(C)cc(C)cc4C)C(=O)O)cc3)C2)c1 (some centres undefined) |
| 0.0015 | 0.1 | 0.347 | 89 | – | – | – | – | Cc1ccnc(NCc2cn(-c3ccc(C[C@H](NC(=O)c4c(C)cc(C)cc4C)C(=O)O)cc3)nn2)c1 |
| 0.0016 | 16 | 90.7 | > 50 | – | – | – | – | Cc1cc(C)c(C(=O)N[C@@H](CNC(=O)CO[C@H]2C[C@H](CNc3ccccn3)N(C(=O)CC(C)(C)C)C2)C(=O)O)c(C)c1 |
| 0.0061 | 0.261 | 0.257 | 118 | 9 | 2.3 | 11 | – | Cc1ccnc(NCc2cc(-c3ccc(C[C@H](NC(=O)c4c(C)cc(C)cc4C)C(=O)O)cc3)on2)c1 |
| 0.0025 | 0.703 | – | – | – | – | – | – | Cc1cc(C)c(C(=O)N[C@@H](Cc2ccc(OCCCNc3ccccn3)cc2)C(=O)O)c(C)c1 |
| 0.0023 | 0.084 | 11 | 23 | 70 | – | 16 | 1.1 | Cc1ccnc(NCC2CCN(c3ccc(CC(NC(=O)c4c(C)cc(C)cc4C)C(=O)O)cc3)CC2)c1 (racemic) |
